This note sets out measurements from patent US20250171404A1, “PCNA INHIBITORS AND USES THEREOF” (CITY OF HOPE, priority 2022, published 2025).

For one data set, the system named is HCT-116. The data set can be described thus: Cell growth IC50, screening of AOH1160 analogs. It is filed as cell-based. The settings on record: Homo sapiens, HCT-116, read-out: IC50 values.
The test system of the next data set is HTC-116. Kind of data set: Cell growth IC50, screening of AOH1160 analogs. It is filed as cell-based. Particulars: read-out: IC50 values.
Another data set concerns MDA-MB-468. The data set can be described thus: Cell growth IC50, screening of AOH1160 analogs. It is filed as cell-based. The settings on record: Homo sapiens, MDA-MB-468, read-out: IC50 values.
A further data set concerns OVCAR8. Kind of data set: Cell growth IC50, screening of AOH1160 analogs. It is filed as cell-based. The settings on record: Homo sapiens, OVCAR-8, read-out: IC50 values.
The subject of another data set is RKO. The data set can be described thus: Cell growth IC50, screening of AOH1160 analogs. Particulars: Homo sapiens, read-out: IC50 values. Type of data set: cell-based.
For a further data set, the system named is 7SM0032. The data set can be described thus: Apoptosis (TUNEL assay), nonmalignant cells. Type of data set: cell-based, human. Particulars: 500 nM, 24 h; 7SM0032 cells. As to the method:
FIGS. 3A-3D. Therapeutic properties of AOH1996. FIG. 3A: Normal cells (7SM0032) or cancer cells (SH-SY5Y and SK-N-BE(2)c) cells were fixed, stained with PI, and analyzed by flow cytometry following treatment with 500 nM AOH1996 for the indicated time. FIG. 3B: SK-N-DZ neuroblastoma cells and nonmalignant 7SM0032 stem cells were incubated with 500 nM AOH1996 for 24 h. Then, after being fixed on slides, cell apoptosis were analyzed by a TUNEL assay. Left: TMR fluorophore attached to the free ends of DNA indicates cells undergoing apoptosis. DAPI stained nuclei also shown. Right: Average abundance ±S.D. of apoptotic 7SM0032 (black histogram) and SK-N-DZ (grey histogram) cells relative to the total number of cells are shown in 5 randomly selected fields. […] The relative number of colonies determined in triplicates for each treatment condition were averaged and graphed ±SDs (*, P<0.01). […] Cell growth was measured as the percentage of cell confluence by imaging every 6 h for a total of 48 h.
Cell apoptosis was measured on a chamber slide at a seeding density of 1×10^5/mL. After treatment with 500 nM AOH1996 for 24 h, cells were fixed and analyzed by a TUNEL assay using the TMR red in situ cell death detection kit (Roche Diagnostics).

Data set [1] has as its system SK-N-BE(2)c xenograft tumors. The data set can be described thus: Xenograft tumor model, neuroblastoma. It is filed as in vivo, mice. As to the method: FIGS. 4A-4H. Pharmacokinetics and anti-tumor growth activity of AOH1996 in vivo. FIG. 4A: After oral administration, the plasma concentrations of AOH1996 from three male and three female ES1^e/SCID mice at the indicated time points were averaged and graphed ±S.D. The inset contains PK parameters determined by a standard noncompartmental method. FIG. 4B: A similar PK study of AOH1996 was performed in dogs. FIGS. 4C-4E: Mice bearing the xenograft tumors of neuroblastoma (FIG. 4C: SK-N-BE(2)c), breast cancer (FIG. 4D: MDA-MB-468), and small-cell lung cancer (FIG. 4E: H82) were given vehicle only (black) or 40 mg/kg of AOH1996 (grey) twice daily immediately after the first measurement. Tumor sizes were measured by a dial caliper each week. Tumor volumes (0.4×L×W^2) were averaged and graphed ±S.E. (*, P<0.01). FIG. 4F: Animal body weight was monitored throughout the studies as an indicator of toxicity. Shown is a typical study results from the study of the SK-N-BE(2)c tumor model described in (FIG. 4C). FIG. 4G: The levels of phosphor-Chk1 (pChk1) and γH2A.X in SK-N-BE(2)c derived tumor samples were analyzed by IHC. Shown are representative images taken from tumors treated by vehicle only or by 40 mg/kg AOH1996. FIG. 4H: ES1^e/SCID mice bearing SK-N-AS derived xenograft tumors were treated with either 80 mg/kg of AOH1996 (black, n=7) for 8 d beginning 8 d after tumor implantation, 15 mg/kg of CPT-11 (n=8) for 3 d beginning 12 d after tumor implantation, or both agents (combination, n=8) under the same dosages and schedules as they were dosed alone. […] The p values determined by the Log-rank (Mantel-Cox) test between combination treatment and each of the control groups are p=0.0003 (Combination vs. NoRx), p=0.005 (Combination vs. AOH1996 alone), and p=0.024 (Combination vs. CPT-11 alone).
In vivo tumor model. […] Tumor size and animal weight were measured weekly. At the end of the experiment, tumors were isolated from sacrificed mice and analyzed by immunohistochemistry staining with antibodies specific for phosphor-Chk1 and γH2A.X.

Data set [2] concerns nonmalignant cells, including human PBMCs, small airway epithelial cells (hSEAC), and neural crest stem cells (7SM0032). Kind of data set: Toxicity to nonmalignant cells.

pIC50: −log10 of the molar value.

With `COc1cccc(Oc2ccccc2NC(=O)CNC(=O)c2cccc3ccccc23)c1` [AOH1996, N-(2-((2-(3-methoxyphenoxy)phenyl)amino)-2-oxoethyl)-1-naphthamide], the pIC50 (in general, the negative decadic logarithm of the IC50, by convention in mol/L) is 6.10 in the data set with HCT-116; 6.60 with HTC-116; 6.13 with MDA-MB-468; 6.26 with OVCAR8; 6.59 in the data set with RKO. In addition, in the data set with 7SM0032, the apoptosis entry was “Nor does it induce apoptosis in 7SM0032 cells”. Moreover, the “pharmacodynamics markers in tumors (immunohistochemistry)” value in data set [1] (40 mg/kg AOH1996 vs vehicle) is “Focal staining of γH2A.X and phospho-Chk1 were observed”. The tumor burden entry in data set [1] (40 mg/kg twice daily, oral, vs vehicle) was “significantly reduced tumor burden”. In addition, the “death, body weight” value in data set [1] (xenograft studies, 40 mg/kg twice daily) is given as “did not cause any death or significant weight loss”. In addition, the “difference in sensitivity between cancer and normal cells” value in data set [2] was determined as 30 fold. Further, the “concentration up to which not significantly toxic” value in data set [2] (human PBMCs, hSEAC, 7SM0032) is “at least 10 μM”.
